{"source": "patent US20170224764A1", "about": "“THERAPEUTIC TARGETING OF MITOCHONDRIA TO PREVENT OSTEOARTHRITIS” (Cornell University, priority 2016, published 2017)", "assay_type_in_all_cases": "cell-based, bovids", "key": {"[1]": {"tested_on": "chondrocytes in cartilage explants", "assay": "Chondrocyte viability, live/dead staining (calcein AM / ethidium homodimer) of impacted cartilage explants, confocal microscopy", "details": "1 μM", "experimental": "(§1) Cartilage was harvested from the knee joints of 4 neonatal bovids (n=30 explants). Cartilage explants were subjected to unconfined compression (24.0±1.4 MPa peak stress; 53.8±5.3 GPa/s peak stress rate) using a validated single-impact subcritical damage model.\n(§2) Cartilage explants were treated with 1 μM D-Arg-Dmt-Lys-Phe-NH2 (SS-31) immediately after injury (T0), one hour following injury (T1), or 6 hours after injury (T6), and then cultured for 7 days. Cartilage conditioned media (CCM) was sampled at T0, T1, T6, and every 24 hours after injury (T24-168) for 7 days.\n(§3) Explants were stained with calcein AM and ethidium homodimer (for live and dead cells, respectively) to assess chondrocyte viability at T24 and T168 using confocal microscopy. Live, dead and total cell numbers were quantified in z-stacked digital images using a custom ImageJ macro. To quantify cell membrane damage, CCM was analyzed using a colorimetric lactate dehydrogenase (LDH) activity assay, and cumulative cell membrane damage over the 7-day incubation period was determined for each explant.\n(§4) Tissue harvest. Full thickness cartilage explants were harvested from the knee joints of healthy bovids (n=8 animals, 1-3 days of age) within 48 hours of sacrifice using an 8 mm biopsy punch. Specimens were rinsed in phosphate-buffered saline (PBS), trimmed to a uniform thickness of 3 mm from the articular surface using a custom jig, and placed in cartilage explant media (phenol free DMEM containing 1% FBS, HEPES 0.025 ml/ml, penicillin 100 U/mL, streptomycin 100 U/mL and 0.1 g/L glucose).\n(§5) Rapid impact injury model. Explants were subjected to injury using rapid-impact model or served as unimpacted controls (as described in Example 3). Briefly, explants were positioned in a well containing PBS under the plane-ended tip of a spring-loaded impacting device. The impactor was used to deliver a single, rapid cycle of unconfined axial compression (24.0±1.4 MPa peak stress; 53.8±5.3 GPa/s peak stress rate). Impact force was measured at 50 kHz by a load cell (PCBPiezotronics, Depew, N.Y.) attached to the impactor tip. Voltage from the load cell was recorded with a custom LabVIEW program (NI, Austin Tex.). The impact magnitude was adjusted by setting the deflection of the impactor's internal spring and mechanical parameters for each impact were calculated (as described in Example 3).\nD-Arg-2′,6′-Dmt-Lys-Phe-NH2 (SS-31) treatment. Following injury, explants were cut perpendicular to the articular surface into 2 hemicylinders using a custom cutting jig to ensure uniform geometry. Cartilage was kept moist at all times and each cut was performed with a fresh (unused) and lubricated cutting instrument. Handling of the experimental tissues was strictly minimized at each step. Explants were placed directly into an individual well of a 24-well untreated tissue culture plate containing a known volume (1.5 ml) of cartilage explant media. Cartilage hemicylinders were randomly assigned to one of 10 treatment groups (n=6/group, FIG. 22). Injured (I) and uninjured control (C) explants in the non-treated groups (ITno, CTno) were placed into wells containing only media. Explants in the time zero treatment groups (IT0, CT0) were placed directly into media containing 1 μM D-Arg-2′,6′-Dmt-Lys-Phe-NH2(SS-31). Explants in the one-hour treatment groups (IT1, CT1) were placed into media only and D-Arg-2′,6′-Dmt-Lys-Phe-NH2(1 μM) was added to the wells 1 hour after impact. Explants in the six-hour treatment groups (IT6, CT6) were placed into media only and D-Arg-2′,6′-Dmt-Lys-Phe-NH2 (1 μM) was added 6 hours after impact. Explants in the twelve-hour treatment groups (IT12, CT12) were placed into media only and D-Arg-2′,6′-Dmt-Lys-Phe-NH2 (1 μM) was added 12 hours after impact. Explants were maintained under standard tissue culture conditions (36° C. and 21% O2) for 7 days. Medium was sampled at 1, 6, and 12 hours, and at 3, 5, and 7 days after impact, and stored at −80° C. until biochemical assays were performed. […]"}, "cartilage explants [2]": {"tested_on": "cartilage explants", "assay": "Cell membrane damage, lactate dehydrogenase (LDH) activity assay on cartilage conditioned media", "details": "1 μM", "experimental": "as §1, §2, §3, §4\nRapid impact injury model. Explants were subjected to injury using rapid-impact model or served as unimpacted controls (as described in Example 3). […] Impact force was measured at 50 kHz by a load cell (PCBPiezotronics, Depew, N.Y.) attached to the impactor tip. Voltage from the load cell was recorded with a custom LabVIEW program (NI, Austin Tex.). The impact magnitude was adjusted by setting the deflection of the impactor's internal spring and mechanical parameters for each impact were calculated (as described in Example 3). […]"}, "[3]": {"tested_on": "chondrocytes in cartilage explants", "assay": "Apoptosis, activated caspase 3/7 staining of impacted cartilage explants", "details": "Example 6, 1 μM", "experimental": "as §4, §5\nD-Arg-2′,6′-Dmt-Lys-Phe-NH2 (SS-31) treatment. […]"}, "cartilage explants [4]": {"tested_on": "cartilage explants", "assay": "Cartilage matrix degradation, GAG loss into the media by DMMB assay", "details": "1 μM", "experimental": "as §1\n[…] Cartilage conditioned media (CCM) was sampled at T0, T1, T6, and every 24 hours after injury (T24-168) for 7 days.\nCartilage matrix degradation was quantified by measuring GAG loss into the media via DMMB assay.\nas §4, §5\nD-Arg-2′,6′-Dmt-Lys-Phe-NH2 (SS-31) treatment. […] Cartilage was kept moist at all times and each cut was performed with a fresh (unused) and lubricated cutting instrument. Handling of the experimental tissues was strictly minimized at each step. Explants were placed directly into an individual well of a 24-well untreated tissue culture plate containing a known volume (1.5 ml) of cartilage explant media. Cartilage hemicylinders were randomly assigned to one of 10 treatment groups (n=6/group, FIG. 22). Injured (I) and uninjured control (C) explants in the non-treated groups (ITno, CTno) were placed into wells containing only media. […]\nCartilage GAG loss. To determine if D-Arg-2′,6′-Dmt-Lys-Phe-NH2 could provide structural protection after impact injury, the loss of glycosaminoglycan (GAG) was determined by routine 1,9-dimethyl-methylene blue dye binding (DMMB) assay. […] Total GAG content was read […], and expressed as the total GAG released into cartilage conditioned media over the culture period per μg dry weight of cartilage. […]"}}, "note": "Entries after “also recorded” stand apart in the source; their conditions may differ.", "data": [{"substance": "D-Arg-2′,6′-Dmt-Lys-Phe-NH2", "values": [{"measurement": "chondrocyte death at 24 hours", "setting": "[1]; Example 2, treatment at 0, 1 or 6 hours after impact, versus untreated impacted cartilage", "value": "significantly reduced"}, {"measurement": "chondrocyte viability / death in injury+treatment groups compared with un-injured controls", "setting": "[1]; Example 6, day 1, treatment at 0, 1 or 6 hours", "value": "equivalent to uninjured controls"}, {"measurement": "reduction in impact-induced chondrocyte death, treated versus untreated explants", "setting": "[1]; Example 6, day 1, treatment at 0, 1 or 6 hours after impact", "value": "over 50%"}, {"measurement": "cell death at 1 day post-injury", "setting": "[1]; Example 6, injured groups treated at 0, 1 or 6 hours (IT0, IT1, IT6) versus untreated injured", "value": "potently reduced cell death; also recorded: effective at preventing chondrocyte death"}, {"measurement": "effect of treatment time on cell death", "setting": "[1]; Example 6, injury groups treated at 0, 1 or 6 hours, p=0.93", "value": "no effect of treatment time"}, {"measurement": "chondrocyte death (% dead cells) compared with untreated, injured controls", "setting": "[1]; Example 6, treatment at 0, 1, 6 or 12 hours after impact", "value": "reduced chondrocyte death; also recorded: reduced as compared to untreated, injured controls"}, {"measurement": "impact-induced cell death on day 7", "setting": "[1]; Example 6, treatment immediately, at 1 hour or at 6 hours after impact", "value": "prevented impact-induced cell death to a similar degree; also recorded: effective at preventing chondrocyte death"}, {"measurement": "cumulative cell membrane damage (LDH activity) over the 7 days following injury", "setting": "cartilage explants [2]; Example 2, treated versus untreated impacted cartilage", "value": "prevents cell membrane damage; also recorded: lower in treated than untreated cartilage"}, {"measurement": "cumulative cell membrane damage, LDH activity in cartilage conditioned media over the 7 days following injury", "setting": "cartilage explants [2]; Example 6, injured, treated versus injured, untreated cartilage, p=0.0005", "value": "approximately twofold lower; also recorded: lower than injured, untreated explants"}, {"measurement": "cumulative LDH in uninjured controls", "setting": "cartilage explants [2]; Example 6, uninjured, treated versus untreated controls, p=0.05", "value": "lower cumulative LDH than untreated controls; also recorded: protective effect against cell membrane damage"}, {"measurement": "impact-induced apoptosis (caspase 3/7 positive cells) at 1 day", "setting": "[3]; 1 day after cartilage injury, p=0.007", "value": "prevented impact-induced apoptosis; also recorded: equivalent to uninjured controls"}, {"measurement": "impact-induced apoptosis (caspase 3/7 positive cells) at 7 days", "setting": "[3]; 7 days after cartilage injury, p=0.04", "value": "prevented impact-induced apoptosis; also recorded: equivalent to uninjured controls"}, {"measurement": "impact-induced GAG loss into the media", "setting": "cartilage explants [4]; Example 2, treatment at 0, 1 or 6 hours after impact, 96 hr post impact", "value": "decreased GAG loss"}, {"measurement": "decrease of impact-induced GAG loss", "setting": "cartilage explants [4]; Example 6, cumulative GAG loss, p=0.002", "value": "~30", "unit": "%"}, {"measurement": "cartilage matrix degeneration (GAG loss into the media) compared with uninjured controls", "setting": "cartilage explants [4]; Example 6, treatment at 0, 1 or 6 hours after impact", "value": "equivalent to uninjured controls"}, {"measurement": "cartilage matrix degeneration (GAG loss into the media) compared with untreated, injured controls", "setting": "cartilage explants [4]; Example 6, treatment at 12 hours after impact", "value": "reduced cartilage matrix degeneration"}]}]}
